Measurements: PubChem BioAssay AID1963851 (Molecular Pharmacology Branch, DTP, NCI, 2024)

System: 188146-221-R-J1-PDC complex spheroid viability
Test: Anticancer human tumor 188146-221-R-J1-PDC patient-derived colon adenocarcinoma cell line growth inhibition [POLQ]
Conditions: for IC50: curve of first compound; for viability, T/C: stronger effect = lower value
Summary of the method: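 Patient-derived tumour cells were co-cultured with HUVEC and mesenchymal stem cells as multicellular spheroids at 37 °C. They were treated with POLQ inhibitors (novobiocin, ART-558, RP6685) alone or combined with other agents. Top concentrations were at or near clinical Cmax (otherwise 10 microM; SN-38 at 1 microM), decreasing in half-log steps.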

[1] = second compound 0.0316 µM, first compound 0.00316 µM
[2] = second compound 0.0316 µM, first compound 0.01 µM
[3] = second compound 0.0316 µM, first compound 0.0316 µM
[4] = second compound 0.0316 µM, first compound 0.1 µM
[5] = second compound 0.0316 µM, first compound 0.316 µM
[6] = second compound 0.0316 µM, first compound 1 µM
[7] = second compound 0.1 µM, first compound 0.00316 µM
[8] = second compound 0.1 µM, first compound 0.01 µM
[9] = second compound 0.1 µM, first compound 0.0316 µM
[10] = second compound 0.1 µM, first compound 0.1 µM
[11] = second compound 0.1 µM, first compound 0.316 µM
[12] = second compound 0.1 µM, first compound 1 µM
[13] = second compound 0.316 µM, first compound 0.00316 µM
[14] = second compound 0.316 µM, first compound 0.01 µM
[15] = second compound 0.316 µM, first compound 0.0316 µM
[16] = second compound 0.316 µM, first compound 0.1 µM
[17] = second compound 0.316 µM, first compound 0.316 µM
[18] = second compound 0.316 µM, first compound 1 µM
[19] = second compound 1 µM, first compound 0.00316 µM
[20] = second compound 1 µM, first compound 0.01 µM
[21] = second compound 1 µM, first compound 0.0316 µM
[22] = second compound 1 µM, first compound 0.1 µM
[23] = second compound 1 µM, first compound 0.316 µM
[24] = second compound 1 µM, first compound 1 µM
[25] = second compound 3.16 µM, first compound 0.00316 µM
[26] = second compound 3.16 µM, first compound 0.01 µM
[27] = second compound 3.16 µM, first compound 0.0316 µM
[28] = second compound 3.16 µM, first compound 0.1 µM
[29] = second compound 3.16 µM, first compound 0.316 µM
[30] = second compound 3.16 µM, first compound 1 µM
[31] = second compound 10 µM, first compound 0.00316 µM
[32] = second compound 10 µM, first compound 0.01 µM
[33] = second compound 10 µM, first compound 0.0316 µM
[34] = second compound 10 µM, first compound 0.1 µM
[35] = second compound 10 µM, first compound 0.316 µM
[36] = second compound 10 µM, first compound 1 µM
[37] = second compound 0.0316 µM, first compound 3.16 µM
[38] = second compound 0.0316 µM, first compound 10 µM
[39] = second compound 0.1 µM, first compound 3.16 µM
[40] = second compound 0.1 µM, first compound 10 µM
[41] = second compound 0.316 µM, first compound 3.16 µM
[42] = second compound 0.316 µM, first compound 10 µM
[43] = second compound 1 µM, first compound 3.16 µM
[44] = second compound 1 µM, first compound 10 µM
[45] = second compound 3.16 µM, first compound 3.16 µM
[46] = second compound 3.16 µM, first compound 10 µM
[47] = second compound 10 µM, first compound 3.16 µM
[48] = second compound 10 µM, first compound 10 µM
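Note: spheroids exposed to compounds for seven days.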
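Throughout, for viability, T/C: 100% = DMSO vehicle control viability.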

## C=CCn1c(=O)c2cnc(Nc3ccc(N4CCN(C)CC4)cc3)nc2n1-c1cccc(C(C)(C)O)n1 + Cc1cccc(N(C)C(=O)C2C(O)CCN2c2nc(C)cc(C(F)(F)F)c2C#N)c1
Second compound 0.0316 µM
  IC50: > 1000 nM
Second compound 0.1 µM
  IC50: > 1000 nM
Second compound 0.316 µM
  IC50: > 1000 nM
Second compound 1 µM
  IC50: > 1000 nM
Second compound 3.16 µM
  IC50: > 1000 nM
Second compound 10 µM
  IC50: 754 nM
[1]
  viability, T/C: 109%
[2]
  viability, T/C: 113%
[3]
  viability, T/C: 104%
[4]
  viability, T/C: 105%
[5]
  viability, T/C: 103%
[6]
  viability, T/C: 60.9%
[7]
  viability, T/C: 112%
[8]
  viability, T/C: 109%
[9]
  viability, T/C: 119%
[10]
  viability, T/C: 114%
[11]
  viability, T/C: 115%
[12]
  viability, T/C: 51.5%
[13]
  viability, T/C: 92.3%
[14]
  viability, T/C: 88.7%
[15]
  viability, T/C: 105%
[16]
  viability, T/C: 107%
[17]
  viability, T/C: 110%
[18]
  viability, T/C: 59.5%
[19]
  viability, T/C: 109%
[20]
  viability, T/C: 98.5%
[21]
  viability, T/C: 105%
[22]
  viability, T/C: 99%
[23]
  viability, T/C: 112%
[24]
  viability, T/C: 57.8%
[25]
  viability, T/C: 90.6%
[26]
  viability, T/C: 101%
[27]
  viability, T/C: 114%
[28]
  viability, T/C: 102%
[29]
  viability, T/C: 89.7%
[30]
  viability, T/C: 56.9%
[31]
  viability, T/C: 90.7%
[32]
  viability, T/C: 92.2%
[33]
  viability, T/C: 104%
[34]
  viability, T/C: 90.4%
[35]
  viability, T/C: 97%
[36]
  viability, T/C: 35.4%

## CCCS(=O)(=O)Nc1ccc(F)c(C(=O)c2c[nH]c3ncc(-c4ccc(Cl)cc4)cc23)c1F + Cc1cccc(N(C)C(=O)C2C(O)CCN2c2nc(C)cc(C(F)(F)F)c2C#N)c1
Second compound 0.0316 µM
  IC50: 9750 nM
Second compound 0.1 µM
  IC50: 6820 nM
Second compound 0.316 µM
  IC50: 6530 nM
Second compound 1 µM
  IC50: 6440 nM
Second compound 3.16 µM
  IC50: 7140 nM
Second compound 10 µM
  IC50: 5880 nM
[3]
  viability, T/C: 117%
[4]
  viability, T/C: 96.5%
[5]
  viability, T/C: 102%
[6]
  viability, T/C: 87.1%
[37]
  viability, T/C: 78.8%
[38]
  viability, T/C: 47.3%
[9]
  viability, T/C: 113%
[10]
  viability, T/C: 97.3%
[11]
  viability, T/C: 106%
[12]
  viability, T/C: 91%
[39]
  viability, T/C: 85.8%
[40]
  viability, T/C: 33.4%
[15]
  viability, T/C: 116%
[16]
  viability, T/C: 112%
[17]
  viability, T/C: 99.2%
[18]
  viability, T/C: 88.3%
[41]
  viability, T/C: 90.9%
[42]
  viability, T/C: 29.2%
[21]
  viability, T/C: 93.4%
[22]
  viability, T/C: 98.1%
[23]
  viability, T/C: 101%
[24]
  viability, T/C: 90.6%
[43]
  viability, T/C: 81.5%
[44]
  viability, T/C: 30.7%
[27]
  viability, T/C: 107%
[28]
  viability, T/C: 104%
[29]
  viability, T/C: 104%
[30]
  viability, T/C: 77.4%
[45]
  viability, T/C: 96.4%
[46]
  viability, T/C: 31%
[33]
  viability, T/C: 106%
[34]
  viability, T/C: 97.7%
[35]
  viability, T/C: 105%
[36]
  viability, T/C: 85.1%
[47]
  viability, T/C: 92.6%
[48]
  viability, T/C: 13.4%

## CNCc1ccc(-c2[nH]c3cc(F)cc4c3c2CCNC4=O)cc1 + Cc1cccc(N(C)C(=O)C2C(O)CCN2c2nc(C)cc(C(F)(F)F)c2C#N)c1
Second compound 0.0316 µM
  IC50: > 10000 nM
Second compound 0.1 µM
  IC50: > 10000 nM
Second compound 0.316 µM
  IC50: > 10000 nM
Second compound 1 µM
  IC50: > 10000 nM
Second compound 3.16 µM
  IC50: > 10000 nM
Second compound 10 µM
  IC50: > 10000 nM
[3]
  viability, T/C: 98.6%
[4]
  viability, T/C: 103%
[5]
  viability, T/C: 101%
[6]
  viability, T/C: 97.3%
[37]
  viability, T/C: 114%
[38]
  viability, T/C: 105%
[9]
  viability, T/C: 108%
[10]
  viability, T/C: 98.6%
[11]
  viability, T/C: 102%
[12]
  viability, T/C: 104%
[39]
  viability, T/C: 108%
[40]
  viability, T/C: 112%
[15]
  viability, T/C: 112%
[16]
  viability, T/C: 105%
[17]
  viability, T/C: 106%
[18]
  viability, T/C: 103%
[41]
  viability, T/C: 106%
[42]
  viability, T/C: 108%
[21]
  viability, T/C: 109%
[22]
  viability, T/C: 103%
[23]
  viability, T/C: 97.7%
[24]
  viability, T/C: 109%
[43]
  viability, T/C: 100%
[44]
  viability, T/C: 110%
[27]
  viability, T/C: 112%
[28]
  viability, T/C: 112%
[29]
  viability, T/C: 95.1%
[30]
  viability, T/C: 84.1%
[45]
  viability, T/C: 112%
[46]
  viability, T/C: 110%
[33]
  viability, T/C: 99.4%
[34]
  viability, T/C: 83.2%
[35]
  viability, T/C: 100%
[36]
  viability, T/C: 93.8%
[47]
  viability, T/C: 106%
[48]
  viability, T/C: 101%

## COc1cccc(OCCCN)c1-c1cc(Nc2cnc(C#N)cn2)n[nH]1 + Cc1cccc(N(C)C(=O)C2C(O)CCN2c2nc(C)cc(C(F)(F)F)c2C#N)c1
Second compound 0.0316 µM
  IC50: 55.5 nM
Second compound 0.1 µM
  IC50: 60.9 nM
Second compound 0.316 µM
  IC50: 51.5 nM
Second compound 1 µM
  IC50: 41.2 nM
Second compound 3.16 µM
  IC50: 47.3 nM
Second compound 10 µM
  IC50: 22.2 nM
[1]
  viability, T/C: 100%
[2]
  viability, T/C: 103%
[3]
  viability, T/C: 61.5%
[4]
  viability, T/C: 36.1%
[5]
  viability, T/C: 18.5%
[6]
  viability, T/C: 12.1%
[7]
  viability, T/C: 99.9%
[8]
  viability, T/C: 90%
[9]
  viability, T/C: 75.8%
[10]
  viability, T/C: 30.7%
[11]
  viability, T/C: 15.9%
[12]
  viability, T/C: 14.2%
[13]
  viability, T/C: 105%
[14]
  viability, T/C: 89.7%
[15]
  viability, T/C: 66%
[16]
  viability, T/C: 29.6%
[17]
  viability, T/C: 17.4%
[18]
  viability, T/C: 13.6%
[19]
  viability, T/C: 113%
[20]
  viability, T/C: 104%
[21]
  viability, T/C: 54.4%
[22]
  viability, T/C: 29%
[23]
  viability, T/C: 17.1%
[24]
  viability, T/C: 12.6%
[25]
  viability, T/C: 91.7%
[26]
  viability, T/C: 82.1%
[27]
  viability, T/C: 62.8%
[28]
  viability, T/C: 27.7%
[29]
  viability, T/C: 15.6%
[30]
  viability, T/C: 14%
[31]
  viability, T/C: 96%
[32]
  viability, T/C: 75.3%
[33]
  viability, T/C: 37.3%
[34]
  viability, T/C: 24.4%
[35]
  viability, T/C: 16.9%
[36]
  viability, T/C: 14.6%
